Data from PMC5478727, “A Novel Small Molecule GDNF Receptor RET Agonist, BT13, Promotes Neurite Growth from Sensory Neurons in Vitro and Attenuates Experimental Neuropathy in the Rat” (Frontiers in Pharmacology, 2017).
Several values for one entry are separate records, joined by “and”; a condition that tells them apart may be missing. Identical values can stand only once.

What was measured:
[1] = system: adult rat lumbar DRG sensory neurons; experiment: Neurite outgrowth from cultured DRG neurons; assay type: cell-based; conditions: for effect of pre-treatment on BT13-stimulated neurite outgrowth: LY294002 50 μM; for effect of pre-treatment on BT13-stimulated neurite outgrowth / block of BT13-stimulated neurite outgrowth, maximum length, mean difference / block of BT13-stimulated neurite outgrowth, total length, mean difference: PD98059 50 μM, SU6656 2 μM; for block of BT13-stimulated neurite outgrowth, maximum length, mean difference / block of BT13-stimulated neurite outgrowth, total length, mean difference: pre-treatment with inhibitor: LY294002 50 μM
Protocol: Cultured lumbar DRG (L3–L5) neurons were prepared using a published method (O'Mullane et al., [2013]). After plating onto poly-L-ornithine (5 μg/ml)/laminin (5 μg/ml) coated coverslips for 1 h, DRG neurons were cultured for 24–30 h in fresh Neurobasal A/B27. GFLs, BT13, NGF, and vehicle control were added at the start of this period for a 24–30 h treatment, except when preceded by pre-treatment (1 h) with inhibitors (50 μM LY294002; 2 μM SU6656, […]; Biomol Research Laboratories, Plymouth Meeting, PA, USA). DRG neurons were then fixed (4% paraformaldehyde) and processed for immunocytochemistry with 1:200 Mouse anti-β III tubulin/AlexaFluor 594 (Sigma-Aldrich Cat# T8660 RRID:AB_477590) and 1:5,000 rabbit anti-calcitonin gene-related peptide/AlexaFluor 488 (Sigma-Aldrich Cat# C8198 RRID:AB_259091) and DAPI for nuclear staining (0.5 μg/ml, Molecular Probes). Image analysis of multichannel 12 bit Zeiss .ZVI or .TIF files (captured with a Zeiss Imager.M1/MRm camera/Zen software; Carl Zeiss Australia, North Ryde, NSW, Australia) was then performed by a researcher blinded to the experimental condition. Neurite initiation was measured by a single parameter (proportion of neurons with neurites longer than the soma diameter). Neurite elongation was measured by batch processing (HCA-Vision software; CSIRO Mathematical and Information Sciences, North Ryde, NSW, Australia) to obtain four parameters—Root number: number of primary neurites; Maximum length: length of longest neurite; Branch points: number of neurite branch points; and Total length: sum of neurite lengths (Kalous and Keast, [2010]; Kalous et al., [2012]). The number of neurons of each immunocytochemical class counted on each coverslip (technical replicates) was 50 for neurite initiation and 20 for neurite elongation. A minimum of three cultures from different rats (biological replicates) were analyzed for each treatment group.

[2] = system: rats with spinal nerve ligation (L5/L6); experiment: Spinal nerve ligation (Chung's) model of experimental neuropathy, von Frey test
neurotensin receptor NT = experiment: CEREP NT (non-selective; agonist radioligand); assay type: binding; conditions: reference compound, Cat. No. 0465
[3] = biological target: T1, serotonin receptor 5-HT2C (Homo sapiens, UniProt P28335); experiment: CEREP 5-HT2C (h) (antagonist radioligand); assay type: binding; conditions: reference compound
T1 construct: purchased CEREP (contract assay) 0137, 1003
T1 sequence (P28335 33-458): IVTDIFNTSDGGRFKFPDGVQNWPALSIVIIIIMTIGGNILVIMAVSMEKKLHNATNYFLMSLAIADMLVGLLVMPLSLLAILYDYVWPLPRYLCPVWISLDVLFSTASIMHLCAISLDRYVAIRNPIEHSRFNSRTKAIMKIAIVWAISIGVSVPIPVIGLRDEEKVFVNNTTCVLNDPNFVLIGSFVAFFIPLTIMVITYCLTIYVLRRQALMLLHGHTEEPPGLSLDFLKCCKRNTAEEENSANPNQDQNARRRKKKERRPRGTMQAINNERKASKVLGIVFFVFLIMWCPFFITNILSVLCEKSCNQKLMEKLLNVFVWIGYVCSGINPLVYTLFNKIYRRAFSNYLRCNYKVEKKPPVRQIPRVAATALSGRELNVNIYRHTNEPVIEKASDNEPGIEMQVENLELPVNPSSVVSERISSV

[4] = biological target: T1, serotonin receptor 5-HT2C; experiment: CEREP 5-HT2C (h) (agonist radioligand); assay type: binding; conditions: reference compound
GFRα1/RET = biological target: T2, GFRα1/RET (Homo sapiens, UniProt P07949); parameters: method as in Sidorova et al., 2010; conditions: GDNF in this assay, ref Sidorova et al., 2010, cited from earlier work
T2 construct: full-length human RET (long isoform) in pCR3.1; expressed in transfected cells; host or cells: MG87 murine fibroblasts (MG87RET + PathDetect Elk-1 + GFRα1)

[5] = system: dorsal root ganglia neurons of SNL rats; experiment: Immunohistochemistry of DRG neuronal markers in rats with spinal nerve ligation; assay type: in vivo, rat; conditions: IHC
From the text: DRGs from rats with spinal nerve ligation treated with BT13 or vehicle were embedded in paraffin and sectioned (7 μm thickness). Sections were deparaffinized, subjected to citrate or basic antigen-retrieval procedure and probed with IB4-Alexa 488 [1:200; IB4-Alexa488, Cat# IB4 (isolectin Griffonia simplicifolia IB4) RRID:AB_2314664] and antibodies against calcitonin gene-related peptide (CGRP; 1:10,000, Peninsula Laboratory, Cat# T-4032 RRID:AB_2313775), NPY (1:10,000, Peninsula Laboratory, Cat# T-4070.0050 RRID:AB_518504), pErk1/2 (1:300, Cell Signaling, Cat# 4370L RRID:AB_2297462), pS6 (1:300, Cell Signaling, Cat# 4858L RRID:AB_1031194) or RET [1:100, kind gift of Dr. E. Kramer, Center for Molecular Neurobiology, University Medical Center Hamburg-Eppendorf, Hamburg, Germany (Meka et al., [2015])] and corresponding secondary antibodies conjugated with fluorophores (Donkey Anti-Rabbit Alexa Fluor 647 conjugate, Cat# A31573 RRID:AB_162544; Donkey anti-Mouse Alexa Fluor 647 conjugate, Cat# A-31571 RRID:AB_2536181; Goat anti-Guinea Pig, Alexa Fluor 568 conjugate, Cat# A-11075 RRID:AB_2534119, Thermo Fisher Scientific, USA) or horse radish peroxidase (VECTASTAIN Elite ABC-Peroxidase Kit antibody, Vector Laboratories, CA, USA, Cat# PK-6101 RRID:AB_2336820). In the latter case, to reveal staining slides were treated with ABC and DAB staining kits (Vector Laboratories, CA, USA) according to the manufacturer's instructions. Sections were co-stained with guinea pig anti-PGP9.5 antibodies (Abcam Cat# ab10410 RRID:AB_297150) whenever possible. Nuclei were visualized using hematoxylin or DAPI dyes. Sections were mounted in Immu-Mount (Thermo Scientific, Cat#9990402) or Coverquick 2000 (Q PATH, Cat#05547530) mounting media and images were taken with fluorescent (Zeiss Imager M2 Axio, Carl Zeiss, Germany) or bright-field (Olympus BX-61, Olympus, Japan) microscopes. Neurons were counted for two sections per DRG and the number of cell profiles with nuclei positive for each specific marker was normalized to the total number of the neurons (identified by PGP9.5 staining or by morphology) per section. Ret-positive neurons were clustered by size using Matlab software R2014b (Mathworks, USA). Statistical analysis was performed using data from three to six individual animals. To obtain sufficient sample size, the data from animals treated with 20 and 25 mg/kg of BT13 were combined.

[6] = gabapentin single oral dose 100 mg/kg on day 12, 1 h before test

T2 sequence (P07949 29-1114): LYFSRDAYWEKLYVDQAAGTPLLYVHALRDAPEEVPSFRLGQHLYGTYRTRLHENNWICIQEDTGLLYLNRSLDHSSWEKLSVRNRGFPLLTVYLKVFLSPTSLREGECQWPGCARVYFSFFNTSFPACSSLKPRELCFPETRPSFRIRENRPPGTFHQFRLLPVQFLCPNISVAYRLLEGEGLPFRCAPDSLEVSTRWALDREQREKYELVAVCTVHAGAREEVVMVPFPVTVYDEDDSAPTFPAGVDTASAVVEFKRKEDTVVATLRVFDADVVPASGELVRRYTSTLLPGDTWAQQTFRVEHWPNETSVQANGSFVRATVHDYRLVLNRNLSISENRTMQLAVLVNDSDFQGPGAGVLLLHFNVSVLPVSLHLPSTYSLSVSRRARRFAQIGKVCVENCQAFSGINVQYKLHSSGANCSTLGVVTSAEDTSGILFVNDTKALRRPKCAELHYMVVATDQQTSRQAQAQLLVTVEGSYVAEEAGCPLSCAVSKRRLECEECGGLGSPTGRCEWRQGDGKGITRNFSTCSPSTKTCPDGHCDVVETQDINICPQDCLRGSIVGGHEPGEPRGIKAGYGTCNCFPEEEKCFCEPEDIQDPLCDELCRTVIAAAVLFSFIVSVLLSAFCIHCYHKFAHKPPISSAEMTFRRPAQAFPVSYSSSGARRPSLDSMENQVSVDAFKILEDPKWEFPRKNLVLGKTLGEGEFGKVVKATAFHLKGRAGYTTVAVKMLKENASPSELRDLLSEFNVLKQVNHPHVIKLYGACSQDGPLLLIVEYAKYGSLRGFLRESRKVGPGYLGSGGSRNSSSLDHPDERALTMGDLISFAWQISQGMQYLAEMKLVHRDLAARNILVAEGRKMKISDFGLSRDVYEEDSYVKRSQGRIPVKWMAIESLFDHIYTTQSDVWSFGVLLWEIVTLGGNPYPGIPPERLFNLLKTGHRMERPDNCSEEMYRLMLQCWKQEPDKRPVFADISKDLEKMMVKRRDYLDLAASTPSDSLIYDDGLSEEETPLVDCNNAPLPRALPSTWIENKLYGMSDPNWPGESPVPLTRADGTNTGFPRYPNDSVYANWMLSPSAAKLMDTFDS

With CN(C)S(=O)(=O)c1ccc2c(c1)/C(=C/c1cc3c([nH]1)CCCC3)C(=O)N2 [SU6656, reference compound] the “effect of pre-treatment on BT13-stimulated neurite outgrowth” value (from here on “effect of pre-treatment”) [1] was “completely blocked”, the “block of BT13-stimulated neurite outgrowth, maximum length, mean difference” value (from here on “block … maximum length, mean difference”) ([1]; BT13 100 ng/ml) was 116 ± 53 μm and the “block of BT13-stimulated neurite outgrowth, total length, mean difference” value (“block … total length, mean difference” below) ([1]; BT13 100 ng/ml) was 1098 ± 343 μm.

For NCC1(CC(=O)O)CCCCC1 [gabapentin, reference compound], the “contralateral PWT” value [2, 6] was 26 ± 0.0 and the “ipsilateral PWT” value [2, 6] was 24.2 ± 1.83.

In the case of Neurotensin, the IC50 (neurotensin receptor NT) is reported as 2.9 nM and the Ki (neurotensin receptor NT; read-out: Ki Ref) is reported as 2.7 nM.

For COc1cc(OC)c(C(=O)CCCCN2CCC3(CC2)NC(=O)NC3=O)cc1NS(=O)(=O)c1ccc(C(F)(F)F)cc1 [RS 102221], the IC50 ([3]; Cat. No. 0137) was 3 nM and the Ki ([3]; Cat. No. 0137, read-out: Ki Ref) was 0.99 nM.

With O=c1cc(N2CCOCC2)oc2c(-c3ccccc3)cccc12 [LY294002, reference compound] the “effect of pre-treatment” value [1] was “completely blocked”, the “block of BT13-stimulated neurite outgrowth, branch points, mean difference” value ([1]; pre-treatment with LY294002 50 μM, BT13 100 ng/ml) was 22 ± 5 and the “block … maximum length, mean difference” value ([1]; BT13 100 ng/ml) was 100.7 ± 13 μm. The “block … total length, mean difference” value ([1]; BT13 100 ng/ml) was 817 ± 207 μm.

In the case of COc1cccc(-c2cc(=O)c3ccccc3o2)c1N [PD98059, reference compound], the “effect of pre-treatment” value [1] is reported as “completely blocked”, the “block … maximum length, mean difference” value ([1]; BT13 100 ng/ml) is reported as 78 ± 17 μm and the “block … total length, mean difference” value ([1]; BT13 100 ng/ml) is reported as 449 ± 113 μm.

With COc1cc(CC(C)N)c(OC)cc1I (racemic) [(±)DOI] the IC50 ([4]; Cat. No. 1003) was 0.46 nM and the Ki ([4]; Cat. No. 1003, read-out: Ki Ref) was 0.42 nM.

B1: glial cell line-derived neurotrophic factor (protein, UniProt P39905 78-211, looked up)
Glial cell line-derived …: SPDKQMAVLPRRERNRQAAAANPENSRGKGRRGQRGKNRGCVLTAIHLNVTDLGLGYETKEELIFRYCSGSCDAAETTYDKILKNLSRNRRLVSDKVGQACCRPIAFDDDLSFLDDNLVYHILRKHSAKRCGCI
notes: GDNF family ligand protein from PeproTech
In the case of B1, the “efficacy, fold induction of luciferase above baseline” value (GFRα1/RET) is given as 84.9 fold and 50–100 fold and the EC50 (GFRα1/RET; read-out: EC50, luciferase activation) is given as 1.2 nM.

B2: artemin (protein, UniProt Q5T4W7 108-220, looked up)
Artemin: AGGPGSRARAAGARGCRLRSQLVPVRALGLGHRSDELVRFRFCSGSCRRARSPHDLSLASLLGAGALRPPPGSRPVSQPCCRPTRYEAVSFMDVNSTWRTVDRLSATACGCLG
notes: as for B1
With B2 the “reduction in the number of RET-positive cells in DRGs after SNL” value ([5]; day 12 after SNL) was “restored”, the “number of large RET-positive neurons in lesioned DRGs” value ([5]; size above 1,000 μm^2, vs contralateral) was “increased” and the “number of small RET-positive neurons in lesioned DRGs” value ([5]; size below 1,000 μm^2, vs contralateral) was “decreased”. The “increase of ipsilateral paw withdrawal threshold (PWT)” value ([2]; ARTN 0.5 mg/kg s.c. on days 1, 3, 5, 8, 10, 12, von Frey, day 12 post-surgery) was 2.6 times, the “neurite initiation or extension” value ([1]; CGRP-negative neurons, NGF 10 ng/ml, ARTN 30 ng/ml, BT13 100 ng/ml) was “no effect” and the “neurite elongation significantly increased” value ([1]; CGRP-positive neurons, ARTN 30 ng/ml) was “not”. The neurite initiation ([1]; CGRP-positive neurons, NGF 10 ng/ml, ARTN 30 ng/ml, BT13 100 ng/ml, overnight) was “significantly increased” and the “proportion of DRG neurons that expressed CGRP in culture” value ([1]; NGF 10 ng/ml, ARTN 30 ng/ml, BT13 100 ng/ml) was “did not alter”.
